Assay results published in PMC7802075 (ACS Infectious Diseases, 2020).
Where a name gives a salt, the structure may show the parent alone. Read-outs that look alike come from different tables or passages of the source.

Target: T1, LmjIPCS (inositol phosphorylceramide synthase from L. major) (Leishmania major, UniProt E9AFX2)
T1 sequence (E9AFX2 1-338): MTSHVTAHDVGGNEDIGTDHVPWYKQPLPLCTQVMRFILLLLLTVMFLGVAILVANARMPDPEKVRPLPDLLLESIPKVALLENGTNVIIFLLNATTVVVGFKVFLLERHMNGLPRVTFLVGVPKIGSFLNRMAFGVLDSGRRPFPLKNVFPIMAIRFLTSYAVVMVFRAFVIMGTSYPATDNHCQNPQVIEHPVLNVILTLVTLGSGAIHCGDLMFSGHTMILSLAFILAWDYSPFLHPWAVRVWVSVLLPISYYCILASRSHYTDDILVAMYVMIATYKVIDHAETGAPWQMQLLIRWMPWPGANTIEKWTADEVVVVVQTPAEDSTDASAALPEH
Assay: biochemical
Assay type: biochemical
Set-up: inhibition: dose or concentration left out as unconfirmed
Settings: for inhibition at 20000 µM: read-out: 20mM inhibition LmjIPCS; for inhibition: read-out: inhibition LmjIPCS

[1] = NINDS set screen, single concentration printed as 20mM
[2] = screening of NINDS set, sheet Screen 1

In the case of `C[C@@H]1O[C@@H](Oc2c(-c3ccc(O)c(O)c3)oc3cc(O)cc(O)c3c2=O)[C@H](O)[C@H](O)[C@H]1O` [QUERCITRIN], the inhibition at 20000 µM is reported as 6.42%.

Work on `CCn1cc(C(=O)O)c(=O)c2ccc(C)nc21` [NALIDIXIC ACID] yielded an inhibition at 20000 µM of -11%.

`CCCCCC1C(=O)CCC1CC(=O)OC` (stereo not shown) [DIHYDROJASMONIC ACID, METHYL ESTER] gave an inhibition at 20000 µM of -2%.

In the case of `N[C@H](C(=O)O)[C@@H]1CC(Cl)=NO1` [ACIVICIN], the “20mM inhibition LmjIPCS” value is reported as 39%.

With `OC[C@@H]1CCCN2CCCC[C@H]12` [LUPININE] the inhibition at 20000 µM was 11%.

`CNC(=C[N+](=O)[O-])NCCSCc1ccc(CN(C)C)o1` [RANITIDINE] showed an inhibition of 1.29%.

Molecule `COc1ccc(NS(=O)(=O)c2ccc(N)cc2)nn1` [SULFAMETHOXYPYRIDAZINE] has an inhibition of -15%.

With `Cc1cc(C2CCCCC2)n(O)c(=O)c1` [CICLOPIROX OLAMINE] the “20mM inhibition LmjIPCS” value [1] was 66%.

With `COc1cc2cc3c4cc(OC)c(OC)cc4cc[n+]3c(C)c2cc1OC` [CORALYNE] the inhibition (NINDS set screen) was -5%.

`CC1(C)O[C@@H]2C[C@H]3[C@@H]4C[C@H](F)C5=CC(=O)CC[C@]5(C)[C@H]4[C@@H](O)C[C@]3(C)[C@]2(C(=O)CO)O1` [FLURANDRENOLIDE] gave an inhibition at 20000 µM of -15%.

With `CC(Cc1ccc(O)cc1)NCC(O)c1cc(O)cc(O)c1` (stereo not shown) [FENOTEROL] the inhibition at 20000 µM was 15%.

`NCC(O)c1ccc(O)cc1` (stereo not shown) [OCTOPAMINE HYDROCHLORIDE] was tested, and the inhibition (NINDS set screen) was 33%.

Molecule `CC(=O)OC(C)C[N+](C)(C)C` (stereo not shown) [METHACHOLINE CHLORIDE] has an inhibition at 20000 µM of -18%.

`CC[C@H]1OC(=O)[C@H](C)[C@@H](O[C@H]2C[C@@](C)(OC)[C@@H](O)[C@H](C)O2)[C@H](C)[C@@H](O[C@@H]2O[C@H](C)C[C@H](N(C)C)[C@H]2O)[C@](C)(O)C[C@@H](C)/C(=N\OCOCCOC)[C@H](C)[C@@H](O)[C@]1(C)O` [ROXITHROMYCIN] was tested, and the “20mM inhibition LmjIPCS” value [1] was 59%.

In the case of `c1ccc2c(Cc3c[nH]c4ccccc34)c[nH]c2c1` [3,3'-DIINDOLYLMETHANE], the “20mM inhibition LmjIPCS” value [1] is reported as 37%.

`CCC1(c2ccccc2)C(=O)NCNC1=O` [PRIMIDONE] was tested, and the inhibition at 20000 µM was -1.2%.

`CC(=O)OCC(=O)[C@@]1(O)CC[C@H]2[C@@H]3CCC4=CC(=O)CC[C@]4(C)[C@@]3(F)[C@@H](O)C[C@@]21C` [FLUDROCORTISONE ACETATE] gave an inhibition at 20000 µM of 4.65%.

For `O=C(O)CCCC[C@@H]1CCSS1` (racemic) [THIOCTIC ACID], the “20mM inhibition LmjIPCS” value [1] was 55%.

In the case of `CCOc1ccc(Cc2nccc3cc(OCC)c(OCC)cc23)cc1OCC` [ETHAVERINE], the inhibition (NINDS set screen) is reported as -7%.

In the case of `COc1cc(N)c(Cl)cc1C(=O)NC1CCN(Cc2ccccc2)CC1` [CLEBOPRIDE], the “20mM inhibition LmjIPCS” value [1] is reported as 47%.

In the case of `CN1CCC(OC(c2ccccc2)c2ccccc2)CC1`, the “20mM inhibition LmjIPCS” value is reported as 65%.

Work on `CCc1ccc(CCOc2ccc(CC3SC(=O)NC3=O)cc2)nc1` (stereo not shown) [PIOGLITAZONE] yielded an inhibition of 9%.

Molecule `O=C1NC(=O)C(=O)C(=O)N1` [ALLOXAN] has an inhibition at 20000 µM of -1.11%.

For `Cc1cc2c(C(C)C)c(O)c(O)c(C=O)c2c(O)c1-c1c(C)cc2c(C(C)C)c(O)c(O)c(C=O)c2c1O` [GOSSYPOL], the “20mM inhibition LmjIPCS” value was 37%.

`CCn1cc(C(=O)O)c(=O)c2cc(F)c(N3CCNCC3)nc21` [ENOXACIN] was tested, and the “20mM inhibition LmjIPCS” value [1] was 56%.

Molecule `CC1(C)S[C@@H]2[C@H](N3C(=O)[C@@H](c4ccccc4)NC3(C)C)C(=O)N2[C@H]1C(=O)O` [HETACILLIN] has an inhibition [2] of 2%.

In the case of `CC(=O)Oc1ccc2c(c1)CCC1C2CC[C@]2(C)C(=O)CCC12` (stereo partly shown) [ESTRONE ACETATE], the inhibition [2] is reported as 8.56%.

With `O=C1CCCN1CC#CCN1CCCC1` [OXOTREMORINE] the inhibition at 20000 µM was 4%.

Work on `CC(=O)OCC(=O)[C@@]1(O)[C@H](C)C[C@H]2[C@@H]3CCC4=CC(=O)C=C[C@]4(C)[C@@]3(F)[C@@H](O)C[C@@]21C` [DEXAMETHASONE ACETATE] yielded an inhibition at 20000 µM of -3.4%.

`NC(=O)c1ccccc1O` [SALICYLAMIDE] showed an inhibition (NINDS set screen) of 0.588%.

For `CC1(C)S[C@@H]2[C@H](NC(=O)[C@H](N)c3ccc(O)cc3)C(=O)N2[C@H]1C(=O)O` [AMOXICILLIN], the “20mM inhibition LmjIPCS” value was 41%.

In the case of `N[C@@H](CCC(=O)N[C@@H](CS)C(=O)NCC(=O)O)C(=O)O` [GLUTATHIONE], the inhibition at 20000 µM is reported as -0.349%.

In the case of `C[C@]12CCC(=O)C=C1CC[C@@H]1[C@@H]2[C@@H](O)C[C@@]2(C)[C@H]1CC[C@]2(O)C(=O)CO` [HYDROCORTISONE], the inhibition is reported as 13%.

With `N=C(N)NC(=O)c1nc(Cl)c(N)nc1N` [AMILORIDE] the “20mM inhibition LmjIPCS” value was 52%.

In the case of `Oc1c(Cl)cc(Cl)c(Cl)c1Cc1c(O)c(Cl)cc(Cl)c1Cl` [HEXACHLOROPHENE], the “20mM inhibition LmjIPCS” value is reported as 41%.

For `CCCCC(=O)O[C@H]1CC[C@H]2[C@@H]3CCc4cc(O)ccc4[C@H]3CC[C@]12C` [ESTRADIOL VALERATE], the “20mM inhibition LmjIPCS” value was 66%.

In the case of `CNC(=N)NCCC[C@H](N)C(=O)O` [TARGININE], the “20mM inhibition LmjIPCS” value is reported as -2%.

For `COc1cc([C@@H]2c3cc4c(cc3[C@@H](O[C@@H]3O[C@@H]5CO[C@@H](c6cccs6)O[C@H]5[C@H](O)[C@H]3O)[C@H]3COC(=O)[C@H]23)OCO4)cc(OC)c1O` [TENIPOSIDE], the inhibition was 23%.

`NCC(CC(=O)O)c1ccc(Cl)cc1` (stereo not shown) [BACLOFEN] was tested, and the “20mM inhibition LmjIPCS” value was 50%.

For `COc1ccc2cc([C@H](C)C(=O)O)ccc2c1` [NAPROXEN(+)], the “20mM inhibition LmjIPCS” value (NINDS set screen, compound at 20mM (so in the source)) was 18%.

`O=C(CCCN1CCC2(CC1)C(=O)NCN2c1ccccc1)c1ccc(F)cc1` [SPIPERONE] showed an inhibition (NINDS set screen) of -6%.

With `CC12CC3CC(C)(C1)CC(N)(C3)C2` [MEMANTINE] the “20mM inhibition LmjIPCS” value [1] was 66%.

`O=C1c2ccccc2C(=O)C1c1ccccc1` [PHENINDIONE] was tested, and the inhibition (NINDS set screen) was 21%.

For `CC(C(=O)O)c1ccc2c(c1)[nH]c1ccc(Cl)cc12` (stereo not shown) [CARPROFEN], the inhibition [2] was 7%.

In the case of `NCCc1c[nH]cn1` [HISTAMINE], the inhibition at 20000 µM is reported as 4.39%.

Work on `O=C(O)c1cn(-c2ccc(F)cc2)c2cc(N3CCNCC3)c(F)cc2c1=O` [SARAFLOXACIN] yielded an inhibition (NINDS set screen) of 18%.

In the case of `CSc1ccc2c(c1)C(N1CCN(C)CC1)Cc1ccccc1S2` (stereo not shown) [METHIOTHEPIN], the “20mM inhibition LmjIPCS” value [1] is reported as 55%.

For `O=C(O)c1cc(=O)c2ccccc2[nH]1` [KYNURENIC ACID], the inhibition at 20000 µM was 6%.

`COC1=C[C@@H]2[C@@H]3Cc4ccc(OC)c(O)c4[C@]2(CCN3C)CC1=O` [SINOMENINE] was tested, and the inhibition at 20000 µM was 8%.

For `COc1ccc2c(c1)CC[C@@H]1[C@@H]2CC[C@]2(C)[C@@H](O)[C@H](O)C[C@@H]12` [ESTRIOL METHYL ETHER], the “20mM inhibition LmjIPCS” value (single concentration 20mM as printed, screening of NINDS set, sheet Screen 1) was 8%.

`Cc1ncc(CNC(=O)N(CCCl)N=O)c(N)n1` [NIMUSTINE] gave an inhibition at 20000 µM of 20%.

`CN(CCOc1ccc(CC2SC(=O)NC2=O)cc1)c1ccccn1` (stereo not shown) [ROSIGLITAZONE] was tested, and the inhibition [2] was 2.64%.

In the case of `C1CCc2nnnn2CC1` [PENTETRAZOL], the inhibition at 20000 µM is reported as 16%.

In the case of `Cn1c(=O)c2[nH]cnc2n(C)c1=O` [THEOPHYLLINE], the inhibition at 20000 µM is reported as 11%.

For `CCCCCCCC/C=C/CCCCCCCCOP(=O)([O-])OCC[N+](C)(C)C` [ELAIDYLPHOSPHOCHOLINE], the inhibition (NINDS set screen) was -7%.

For `COc1ccc(C(=O)CC(=O)c2ccc(C(C)(C)C)cc2)cc1` [AVOBENZONE], the inhibition at 20000 µM was 0.941%.

`CCN(CC)CCOC(=O)C(Cc1cccc2ccccc12)CC1CCCO1` (stereo not shown) [NAFRONYL] was tested, and the “20mM inhibition LmjIPCS” value was 46%.

Work on `CCCCCC1C(=O)CCC1CC(=O)O` (stereo not shown) [DIHYDROJASMONIC ACID] yielded an inhibition at 20000 µM of 20%.

`O=c1oc2ccccc2c(O)c1Cc1c(O)c2ccccc2oc1=O` [DICUMAROL] showed an inhibition of -3%.

For `N[C@@H](Cc1c[nH]c2ccccc12)C(=O)O` [TRYPTOPHAN], the “20mM inhibition LmjIPCS” value was 34%.

In the case of `Cc1c(C(N)=O)cc([N+](=O)[O-])cc1[N+](=O)[O-]` [DINITOLMIDE], the inhibition is reported as 5%.
